Experimental data as given in patent US8865901B2, “Gain-of-function Bcl-2 inhibitors” (priority 2009, dated 2014).
Like-named read-outs stand apart in the source and are kept apart here.

Key:
H23, NSCLC tumor = experiment: Apoptosis induction against solid tumors in vitro, H23; format: cell-based
Description: (§1) The ability of compounds from Example 2 to induce apoptosis against solid tumors in vitro was tested. Four solid tumors were tested: OVCAR-3, an ovarian tumor; COLO205, a colonic tumor; HOP-62 and H23, both NSCLC tumors. The experimental compounds were compared to 2MeAA and to ABT-737, a clinical stage compound owned by Abbott Pharma.
(§2) The ability of compounds of Example 8 to induce apoptosis against solid tumors in vitro was tested. Four solid tumors were tested: OVCAR-3, an ovarian tumor; COLO205, a colonic tumor; HOP-62 and H23, both NSCLC tumors. The experimental compounds, […]

[1] = tested on: OVCAR-3, an ovarian tumor; experiment: Apoptosis induction against solid tumors in vitro, OVCAR-3; format: cell-based
Description: as §1, §2

HOP-62, NSCLC tumor = experiment: Apoptosis induction against solid tumors in vitro, HOP-62; format: cell-based
Description: as §1, §2

COLO205, a colonic tumor = experiment: Apoptosis induction against solid tumors in vitro, COLO205; format: cell-based
Description: as §1, §2

Colo205 cells = experiment: Mouse colon carcinoma xenograft model; format: in vivo, NOD/Les2 SCID/J mice; conditions: daily intraperitoneal administration, single agent; FIG. 4
Description: The ability of the experimental compounds to inhibit tumor growth in a body was tested in a mouse colon carcinoma xenograft model.
(§3) Six to nine-week old NOD/Les2 SCID/J mice were inoculated with 3×10^7 Colo205 cells by interscapular subcutaneous injection. Mice were maintained under specific pathogen-free conditions. Palpable tumor nodules were measured in two dimensions with calipers and tumor volumes calculated in mm3 as (length×width^2)/2. Blood samples were collected by retro-orbital bleed for human light chain measurements by ELISA using lambda-specific antibody (BD Biosciences). Animals were sacrificed by halothane inhalation, and histologic examination of the tumors and internal organs was performed. All experiments were approved by the FHCRC Institutional Animal Care and Use Committee.
Animals were treated by daily intraperitoneal administration of Compound 0511 (see structure above in Example 2).
as §3, with “Animals were sacrificed by halothane inhalation, and histologic examination of the tumors and internal organs was performed. All experiments were approved by the FHCRC Institutional Animal Care and Use Committee.” left out

[2] = tested on: TAMH cells transfected with Neo vector (Neo); experiment: Cytotoxicity / apoptosis induction in TAMH cells transfected with Neo vector; format: cell-based; conditions: TAMH Neo cells
Description: (§4) To examine the sensitivity of cells over-expressing Bcl-xL to various mitochondrial inhibitors and apoptosis inducers, cell lines over-expressing Bcl-xL were prepared and tested according to Hockenberry et al. U.S. Pat. No. 7,241,804, hereby incorporated by reference in its entirety. Competitive binding of compounds with fluorescent antimycin A3, and competitive binding of compounds with BH3 peptide and Bcl-2. Competitive binding of compounds with BH-3 peptide were also measured using Bcl-xL as previously described. Id.
(§5) Cell lines were grown in RPMI 1640 medium (Gibco, Grand Island, N.Y.) supplemented with 5% fetal bovine serum (Hyclone, Logan, Utah). Also shown is the ratio of TAMH cells expressing Bcl-xL to those expressing A142L (WT:142L). The assay measures the potency of various compounds with respect to inducing apoptosis in these cells.
(§6) The compounds described in Example 2 were tested for their ability to inhibit Bcl-2 gain-of-function in TAMH cells, TAMH cells overexpressing […] (TAMH-Bcl-xL), TAMH cells transfected with Neo vector (Neo), TAMH cells over expressing a variant of Bcl-xL (A142L) using the methods of Example 1. 3-6.
(§7) The effects of the compounds described in Example 8 on TAMH cells, TAMH cells overexpressing Bcl-xL (TAMH-Bcl-xL), TAMH cells transfected with Neo vector (Neo), TAMH cells over expressing a variant of Bcl-xL (A142L) is shown in Table 8
(§8) The effects of the compounds described in Example 10 on TAMH cells, TAMH cells overexpressing Bcl-xL (TAMH-Bcl-xL), TAMH cells transfected with Neo vector (Neo), TAMH cells over expressing a variant of Bcl-xL (A142L) is shown in the following Table 10

[3] = tested on: TAMH cells overexpressing Bcl-xL (TAMH-Bcl-xL, Tabx2s); experiment: Cytotoxicity / apoptosis induction in TAMH cells overexpressing Bcl-xL; format: cell-based; conditions: for Neo:Bcl: ratio Neo to Bcl-xL cells
Description: as §4, §5, §6, §7, §8

[4] = tested on: TAMH cells over expressing a variant of Bcl-xL (A142L); experiment: Cytotoxicity / apoptosis induction in TAMH cells over expressing Bcl-xL variant A142L; format: cell-based; conditions: Table 4; for EC50: TAMH A142L cells; for WT:142L: ratio of TAMH cells expressing Bcl-xL to those expressing A142L
Description: as §4, §5, §6

Log P = conditions: for Log P: Table 3
[5] = tested on: CFPAC-1, HPAF-II MIA PaCa, PaTu-1, PaTu-8988t, ASPC-1, FA-6, and PANC-1 cell lines; experiment: EC50 in a panel of pancreatic cell lines; format: cell-based; conditions: Homo sapiens; every pancreatic cell line of the panel, but for HPAF-II; FIG. 1
Description: The EC50 for the Compound 0216 (see structure above) was determined in a panel of pancreatic cell lines.
(§9) The panel included CFPAC-1, HPAF-II MIA PaCa, PaTu-1, PaTu-8988t, ASPC-1, FA-6, and PANC-1 cell lines. Pancreatic cancer samples were obtained from patients, with appropriate patient consent and approval of the Fred Hutchinson Cancer Research Center Institutional Review Board. Primary cells were maintained in Iscove's medium supplemented with 10% bovine calf serum, 100 ng·ml^−1 stem cell factor, and 50 ng·ml^−1 interleukin-3.
The EC50 values were measured with compound 216. […] This means that this molecule has a broad ability to induce apoptosis in a wide variety of pancreatic cancers.
as §9, with “institutional approval.” for “approval of the Fred Hutchinson Cancer Research Center Institutional Review Board.”
The EC50 values were measured with compound FH279.

[6] = Homo sapiens, NCI-H23, Table 21
[7] = Homo sapiens, COLO 205, Table 21
[8] = Table 4, TAMH-Bcl-xL cells, read-out: Bcl-xL
[9] = Table 3, TAMH cells overexpressing Bcl-xL (Tabx2s), read-out: 2S EC50
[10] = Mus musculus, Table 6, read-out: Neo EC50
[11] = Mus musculus, Table 6, TAMH cells overexpressing Bcl-xL (Tabx2s), read-out: 2S EC50

Compound	EC50 ([2]; Table 4, read-out: Neo) [µM]	EC50 [3, 8] [µM]	Neo:Bcl ([3]; Table 4)	EC50 [4] [µM]	WT:142L [4]	EC50 ([2]; Table 3, read-out: Neo EC50) [µM]	EC50 [3, 9] [µM]	Log P (Log P)	further results
Oc1c(Br)cc(Cl)cc1/C=N/Nc1ccc(C(F)(F)F)cn1 [FH096]	–	–	–	–	–	–	–	–	EC50 (H23, NSCLC tumor; [6]): 5.6 µM; EC50 ([1]; Homo sapiens, Table 21): 4.2 µM; EC50 (HOP-62, NSCLC tumor; Homo sapiens, Table 21): 19.1 µM; EC50 (COLO205, a colonic tumor; [7]): > 25 µM
O=C1c2ccccc2C(=O)c2c1n[n+]([O-])n2CCCN1CCN(c2ccccn2)CC1 [Compound 0511]	–	–	–	–	–	–	–	–	tumor growth (Colo205 cells): effective in inhibiting tumor growth
Oc1c(Cl)cc(Cl)cc1/C=N/Nc1ccc(C(F)(F)F)cn1 [Compound 0235]	11	3.9	2.8	8.5	2.2	–	–	–	EC50 (H23, NSCLC tumor; Table 7): 3.7 µM; EC50 ([1]; Table 7): 2.7 µM; EC50 (HOP-62, NSCLC tumor; Table 7): 8.3 µM; EC50 (COLO205, a colonic tumor; Table 7): 6.7 µM
CN(C)CC[C@H](CSc1ccccc1)Nc1ccc(S(=O)(=O)NC(=O)c2ccc(N3CCN(Cc4ccccc4-c4ccc(Cl)cc4)CC3)cc2)cc1[N+](=O)[O-] [ABT-737, reference compound]	–	–	–	–	–	–	–	–	EC50 (H23, NSCLC tumor; Homo sapiens, NCI-H23, Table 7): > 25 µM; EC50 (H23, NSCLC tumor; Table 21): > 25 µM; EC50 ([1]; Homo sapiens, Table 7): 17 µM; EC50 (HOP-62, NSCLC tumor; Homo sapiens, Table 7): > 25 µM; EC50 (HOP-62, NSCLC tumor; Table 21): > 25 µM; EC50 (COLO205, a colonic tumor; Homo sapiens, COLO 205, Table 7): > 25 µM; EC50 (COLO205, a colonic tumor; Table 21): > 25 µM
O=[N+]([O-])c1cccc(/C=N/Nc2ccccn2)c1O [Compound 0208]	> 25	4.4	5.7	9.7	2.2	–	–	–	EC50 (H23, NSCLC tumor; Table 7): 8.2 µM; EC50 ([1]; Table 7): 3.8 µM; EC50 (HOP-62, NSCLC tumor; Table 7): 17.5 µM; EC50 (COLO205, a colonic tumor; Table 7): 9.2 µM
COc1cc(O)c(/C=N/Nc2ccccn2)cc1Br [Compound 0351]	> 25	> 25	1	> 25	1	≥ 50	2.6	3.03	–
COc1cc(Br)cc(/C=N/Nc2ccc(C(F)(F)F)cc2)c1O [Compound 0333]	> 25	2.7	9.2	22.2	8.2	26.9	2.2	6.510	–
Oc1c(Cl)cc(Cl)cc1/C=N/Nc1ccc(C(F)(F)F)cn1 [FH092]	–	–	–	–	–	–	–	–	EC50 (H23, NSCLC tumor; [6]): 3.7 µM; EC50 ([1]; Homo sapiens, Table 21): 2.7 µM; EC50 (HOP-62, NSCLC tumor; Homo sapiens, Table 21): 8.3 µM; EC50 (COLO205, a colonic tumor; [7]): 6.7 µM
O=[N+]([O-])c1cccc(/C=N/Nc2ccc3ccccc3n2)c1O [FH297]	–	–	–	–	–	–	–	–	EC50 (H23, NSCLC tumor; [6]): 2.8 µM; EC50 ([1]; Homo sapiens, Table 21): 1.5 µM; EC50 (HOP-62, NSCLC tumor; Homo sapiens, Table 21): 2.7 µM; EC50 (COLO205, a colonic tumor; [7]): 1 µM
2-methoxy antimycin A [Compound 2-MeAA, reference compound]	15.6	2.5	6.9	10.3	4.1	–	–	–	EC50 (H23, NSCLC tumor; Table 7): 2.7 µM; EC50 (H23, NSCLC tumor; Table 21): 2.7 µM; EC50 ([1]; Table 7): 3.5 µM; EC50 ([1]; Table 21): 3.5 µM; EC50 (HOP-62, NSCLC tumor; Table 7): 3.9 µM; EC50 (HOP-62, NSCLC tumor; Table 21): 3.9 µM; EC50 (COLO205, a colonic tumor; Table 7): 1.8 µM; EC50 (COLO205, a colonic tumor; Table 21): 1.8 µM
Oc1c(Cl)cc(Cl)cc1/C=N/Nc1ccccn1 [Compound 0233]	–	–	–	–	–	≥ 50	3.5	3.190	–
O=[N+]([O-])c1ccc(O)c(/C=N/Nc2nccc3ccccc23)c1O [FH314]	–	–	–	–	–	–	–	–	EC50 (H23, NSCLC tumor; [6]): 8.2 µM; EC50 ([1]; Homo sapiens, Table 21): 3.8 µM; EC50 (HOP-62, NSCLC tumor; Homo sapiens, Table 21): 17.5 µM; EC50 (COLO205, a colonic tumor; [7]): 9.2 µM
O=[N+]([O-])c1ccc(SCc2ccccc2)c2nonc12 [Compound 0216]	–	–	–	–	–	–	–	–	EC50 [2, 10]: 3.7 µM; EC50 [3, 11]: 1.2 µM; sensitivity to the apoptosis-inducing effects ([3]; TAMH cells overexpressing Bcl-xL compared to TAMH neo cells, FIG. 2): more sensitive; EC50 [5]: < 10 µM
Oc1c(Br)cc(Cl)cc1/C=N/Nc1ccc(C(F)(F)F)cn1 [Compound 0239]	17.2	4.3	4	13.3	3.1	–	–	–	EC50 (H23, NSCLC tumor; Table 7): 5.6 µM; EC50 ([1]; Table 7): 4.2 µM; EC50 (HOP-62, NSCLC tumor; Table 7): 19.1 µM; EC50 (COLO205, a colonic tumor; Table 7): > 25 µM
CC(C)(C)c1cc(Br)c(O)c(/C=N/Nc2ccccn2)c1 [Compound 0401]	> 25	4.4	5.7	> 25	2.2	40.8	1.7	4.810	–
COc1cc(Br)c(O)c(/C=N/NC(=O)c2ccccc2)c1 [Compound 0283]	> 25	3.5	7.1	> 25	7.1	≥ 50	2.5	3.730	–
CC(C)(C)c1ccc(Cc2ccc(Cl)cc2Cl)cc1 [Compound 0149]	–	–	–	–	–	–	–	–	EC50 [2, 10]: 9.2 µM; EC50 [3, 11]: 1.1 µM; logP (Log P): 6.28
Oc1ccc(Cl)cc1/C=N/Nc1ccc(C(F)(F)F)cn1 [Compound 0231]	–	–	–	–	–	≥ 50	2.1	3.560	–
